{"source": "patent US5186913A", "about": "“Tungsten-188/carrier-free rhenium-188 perrhenic acid generator system” (Martin Marietta Energy Systems, Inc., priority 1991, dated 1993)", "origin": "cited, not measured here", "key": {"[1]": {"test": "not given", "remark": "listed apart in the source"}}, "note": "Where two headings read alike, the source gives them in different places."}
{"smiles": "[Re]", "note": "[Re, Rhenium]", "values": [{"measurement": "distribution coefficient Dv (amount absorbed per liter resin bed/amount per liter solution)", "setting": "0.1M HNO3", "value": "1×10^3"}, {"measurement": "distribution coefficient Dv (amount absorbed per liter resin bed/amount per liter solution)", "setting": "6M HNO3", "value": "~ 1"}]}
{"smiles": "[188Re]", "note": "[Re-188, Rhenium-188]", "values": [{"measurement": "energy of gamma photon", "setting": "[1]; gamma emission", "value": 155, "unit": "keV"}, {"measurement": "abundance of gamma photon", "setting": "[1]; gamma photon of 155 keV", "value": "about 15%"}, {"measurement": "half-life", "setting": "[1]; radioactive decay", "value": 0.704, "unit": "days"}, {"measurement": "average energy of β emission", "setting": "[1]; β emission", "value": 764, "unit": "keV"}]}
{"smiles": "[188W]", "note": "[W-188, tungsten-188]", "values": [{"measurement": "t1/2", "setting": "[1]; radioactive decay, parent isotope", "value": 69.4, "unit": "days"}]}
